The target of experiment [1] is HPK1 (Homo sapiens (Human), UniProt Q92918). Briefly: biochemical. The experiment is classed as binding.
Experiment [2] deals with HPK1 (Homo sapiens (Human), UniProt Q92918, S171E/T165E). Briefly: biochemical.

The values that follow come from patent publication US11566003B2, “Isoquinolines as inhibitors of HPK1” (priority 2017, dated 2023).

The term Ki denotes the dissociation constant of the complex between target and ligand, obtained from inhibition or displacement. High values mean weaker binding, low ones tighter binding.

`Cc1c(NC(C)C)cncc1-c1cc(N)c2cnc(NC(=O)[C@@H]3C[C@H]3C#N)cc2c1` (racemic) [Compound 186, (±)-trans-N-(8-amino-6-[4-methyl-5-[(propan-2-yl)amino]pyridin-3-yl]isoquinolin-3-yl)-2-cyanocyclopropane-1-carboxamide] returned a Ki on HPK1 [1] of 6.96 nM.

For `Cc1c(N)cncc1-c1cc2cc(NC(=O)[C@@H]3C[C@H]3CC#N)ncc2c(N)c1Cl` (racemic) [Compound 209, (±)-trans-N-(8-amino-6-(5-amino-4-methylpyridin-3-yl)-7-chloroisoquinolin-3-yl)-2-(cyanomethyl)cyclopropanecarboxamide], the Ki on HPK1 [1] was determined as 0.0405 nM.

`C[C@H]1Cc2c(cncc2-c2cc(N)c3cnc(NC(=O)C4CC4)cc3c2)N1` [Compound 189, (S)—N-(8-amino-6-(2-methyl-2,3-dihydro-1H-pyrrolo[2,3-c]pyridin-4-yl)isoquinolin-3-yl)cyclopropanecarboxamide] came in with a Ki on HPK1 [1] of 5.44 nM.

The compound `Cc1ccncc1-c1cc2cc(Nc3cc4n(n3)CC(=O)N(C)CC43CC3)ncc2c(N)c1F` [Compound 228, 2′-((8-amino-7-fluoro-6-(4-methylpyridin-3-yl)isoquinolin-3-yl)amino)-6′-methyl-5′,6′-dihydrospiro[cyclopropane-1,4′-pyrazolo[1,5-d][1,4]diazepin]-7′(8′H)-one] returned an inhibitory constant (Ki) at HPK1 [2] of […].
